Test results: ChEMBL document CHEMBL1201862, “PubChem BioAssay data set” (2004)
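All cell lines were grown in 96-well plates and treated with compound for 48 hours. Abbreviation: GI50, concentration required for 50% inhibition of growth.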 The source made the active and inactive calls. No stated cut-off is given here; in the data, active = GI50 up to about 1.1 µM and inactive = higher.

Assays:
Assay in all cases: DTP human tumour cell line panel, 48 h
[1] = test system: HCT-116
[2] = test system: A549
[3] = test system: HT-29
[4] = test system: SF-268
[5] = test system: OVCAR-3
[6] = test system: HCC 2998
[7] = test system: U-251
[8] = test system: SNB-75
[9] = test system: Hs-578T
[10] = test system: Malme-3M
[11] = test system: NCI-H226
[12] = test system: ACHN
[13] = test system: TK-10
[14] = test system: MDA-MB-435
[15] = test system: HOP-62
[16] = test system: M14
[17] = test system: UACC-62
[18] = test system: HCT-15
[19] = test system: HOP-92
[20] = test system: COLO 205

Structure (SMILES) | GI50 [1] | GI50 [2] | GI50 [3] | GI50 [4] | GI50 [5] | GI50 [6] | GI50 [7] | GI50 [8] | GI50 [9] | GI50 [10] | GI50 [11] | GI50 [12] | GI50 [13] | GI50 [14] | GI50 [15] | GI50 [16] | GI50 [17] | GI50 [18] | GI50 [19] | GI50 [20]
COc1ccc(Nc2nc3ccccc3nc2C(=O)O)cc1OC | > 100 µM (inactive) | > 100 µM (inactive) | > 100 µM (inactive) | 41 µM (inactive) | 40.2 µM (inactive) | 71.6 µM (inactive) | > 100 µM (inactive) | 69.2 µM (inactive) | > 100 µM (inactive) | 34 µM (inactive) | 57 µM (inactive) | 44.8 µM (inactive) | 82.8 µM (inactive) | > 100 µM (inactive) | 34.4 µM (inactive) | > 100 µM (inactive) | 60.8 µM (inactive) | 50.7 µM | 27.5 µM (inactive) | > 100 µM (inactive)
COc1cc(/C=C2\C(=O)N(c3ccc(Cl)cc3)C(c3ccccc3)S2(=O)=O)cc(OC)c1OC (centres undefined) | 3.37 µM (inactive) | 17.8 µM (inactive) | 42.5 µM (inactive) | 31 µM (inactive) | 25.4 µM (inactive) | 41.4 µM (inactive) | 29.1 µM (inactive) | 53.8 µM (inactive) | > 100 µM (inactive) | 42.3 µM (inactive) | > 84.1 µM (inactive) | – | > 63 µM (inactive) | 0.394 µM (active) | > 34.5 µM (inactive) | 0.522 µM (active) | 2.19 µM (inactive) | 1.03 µM | 51.9 µM (inactive) | 1.99 µM (inactive)
COc1cc2c(c(OC)c1OC)-c1ccc(OC)c(=O)cc1C(NC(=O)COc1ccccc1)CC2 (centres undefined) | < 0.01 µM (active) | < 0.01 µM (active) | < 0.01 µM (active) | < 0.01 µM (active) | < 0.01 µM (active) | < 0.01 µM (active) | < 0.01 µM (active) | < 0.01 µM (active) | < 0.01 µM (active) | < 0.01 µM (active) | < 0.0372 µM (active) | 0.0101 µM (active) | 0.627 µM (active) | < 0.01 µM (active) | < 0.01 µM (active) | < 0.01 µM (active) | < 0.01 µM (active) | 0.0104 µM | < 0.01 µM (active) | < 0.01 µM (active)
O=C(NCc1ccc(Cl)c(Cl)c1)c1nc2ccccc2nc1NCc1ccc(Cl)c(Cl)c1 | > 100 µM (inactive) | > 100 µM (inactive) | > 100 µM (inactive) | > 100 µM (inactive) | > 100 µM (inactive) | > 100 µM (inactive) | > 100 µM (inactive) | > 100 µM (inactive) | > 100 µM (inactive) | – | > 100 µM (inactive) | > 100 µM (inactive) | > 100 µM (inactive) | > 100 µM (inactive) | 83.6 µM (inactive) | > 100 µM (inactive) | > 100 µM (inactive) | > 100 µM | > 100 µM (inactive) | > 100 µM (inactive)
Cc1ccc(C)n1-c1ccccc1C1C=Cn2c3c1c(=O)c(OC(C)C)c(OC(C)C)c-3n[nH]c2=O (centres undefined) | 19.2 µM (inactive) | 23.4 µM (inactive) | 19.9 µM (inactive) | 59.2 µM (inactive) | 35.5 µM (inactive) | 23.6 µM (inactive) | 32.7 µM (inactive) | 25.4 µM (inactive) | 35.4 µM (inactive) | 18.7 µM (inactive) | 21.4 µM (inactive) | 45.8 µM (inactive) | 44 µM (inactive) | 21.8 µM (inactive) | 40 µM (inactive) | 25.1 µM (inactive) | 39.4 µM (inactive) | 21.7 µM | 84.7 µM (inactive) | 13.1 µM (inactive)
C=C(C)C(=O)O[C@H]1CC2=CC(CC(C)=C[C@H]3OC(=O)C(=C)C13)OC2=O (some centres undefined) | 10.8 µM (inactive) | > 100 µM (inactive) | 17 µM (inactive) | 20.6 µM (inactive) | 24.7 µM (inactive) | 35 µM (inactive) | > 100 µM (inactive) | > 100 µM (inactive) | 99.1 µM (inactive) | 20.2 µM (inactive) | > 100 µM (inactive) | 13.2 µM (inactive) | 8.02 µM (inactive) | 29.3 µM (inactive) | – | 29.4 µM (inactive) | 17.4 µM (inactive) | 10.8 µM | 16.4 µM (inactive) | 14.5 µM (inactive)
COc1ccc(CC2C(=O)NC(C)C(=O)N(C)C3C(=O)N(C)C(Cc4ccc(O)c(c4)Oc4ccc(cc4)C3O)C(=O)NC(C)C(=O)NC(C)C(=O)N2C)cc1.COc1ccc(CC2C(=O)NC(C)C(=O)N(C)C3Cc4ccc(cc4)Oc4cc(ccc4O)CC(C(=O)NC(C)C(=O)NC(C)C(=O)N2C)N(C)C3=O)cc1 (centres undefined) | 0.00108 µM (active) | 0.0177 µM (active) | 0.01 µM (active) | 0.00316 µM (active) | 0.01 µM (active) | 0.00619 µM (active) | 0.0012 µM (active) | 0.01 µM (active) | 0.01 µM (active) | – | 0.00233 µM (active) | 0.0995 µM (active) | 0.0408 µM (active) | 0.004 µM (active) | 0.0552 µM (active) | 0.00582 µM (active) | 0.00266 µM (active) | 0.483 µM | 0.00364 µM (active) | 0.03 µM (active)
CO[C@@H](c1ccccc1)[C@H](O)[C@](O)(c1ccccc1)P(=O)(OC)OC | > 100 µM (inactive) | > 100 µM (inactive) | > 100 µM (inactive) | > 100 µM (inactive) | > 100 µM (inactive) | > 100 µM (inactive) | > 100 µM (inactive) | > 100 µM (inactive) | > 100 µM (inactive) | > 100 µM (inactive) | > 100 µM (inactive) | > 100 µM (inactive) | > 100 µM (inactive) | > 100 µM (inactive) | – | > 100 µM (inactive) | > 100 µM (inactive) | > 100 µM | 91.6 µM (inactive) | > 100 µM (inactive)
COc1cc(C2SC(=N)Nc3c2c(C)nn3C(=O)c2ccccc2O)ccc1O (centres undefined) | – | 1.36 µM (inactive) | > 6.38 µM (inactive) | > 3.05 µM (inactive) | > 2.93 µM (inactive) | > 6.62 µM (inactive) | 1.74 µM (inactive) | 1.04 µM (active) | 0.461 µM (active) | 0.513 µM (active) | > 2.25 µM (inactive) | 1.21 µM (inactive) | > 2.96 µM (inactive) | 1.54 µM (inactive) | > 2.61 µM (inactive) | > 2.85 µM (inactive) | 1.15 µM (inactive) | > 2.31 µM | > 10 µM (inactive) | > 5.55 µM (inactive)
COC1=CC(=O)O/C1=C(\OC)C1OC1c1ccccc1 (centres undefined) | > 100 µM (inactive) | > 100 µM (inactive) | > 100 µM (inactive) | > 100 µM (inactive) | > 100 µM (inactive) | > 100 µM (inactive) | > 100 µM (inactive) | – | > 100 µM (inactive) | > 100 µM (inactive) | > 100 µM (inactive) | > 100 µM (inactive) | > 100 µM (inactive) | > 100 µM (inactive) | > 100 µM (inactive) | > 100 µM (inactive) | > 100 µM (inactive) | > 100 µM | > 100 µM (inactive) | > 100 µM (inactive)
COc1ccc2c(c1)C(N)=C(c1ccccc1OC)C2=O | > 100 µM (inactive) | – | > 100 µM (inactive) | > 100 µM (inactive) | > 100 µM (inactive) | > 100 µM (inactive) | > 100 µM (inactive) | 64.3 µM (inactive) | > 100 µM (inactive) | > 100 µM (inactive) | > 100 µM (inactive) | > 100 µM (inactive) | > 100 µM (inactive) | 53.6 µM (inactive) | > 100 µM (inactive) | > 100 µM (inactive) | 77.8 µM (inactive) | > 100 µM | > 100 µM (inactive) | > 100 µM (inactive)
CCOC(=O)c1[nH]c2ccccc2c1C(=O)C[C@H](NC(=O)C(F)(F)F)C(=O)OC | > 100 µM (inactive) | > 100 µM (inactive) | > 100 µM (inactive) | > 100 µM (inactive) | > 100 µM (inactive) | > 100 µM (inactive) | > 100 µM (inactive) | > 100 µM (inactive) | > 100 µM (inactive) | > 100 µM (inactive) | > 100 µM (inactive) | > 100 µM (inactive) | > 100 µM (inactive) | > 100 µM (inactive) | > 100 µM (inactive) | > 100 µM (inactive) | – | > 100 µM | > 100 µM (inactive) | > 100 µM (inactive)
O=[N+]([O-])c1cccc(/N=N/c2c(O)c(S(=O)(=O)O)cc3cc(S(=O)(=O)O)ccc23)c1 | > 100 µM (inactive) | > 100 µM (inactive) | – | > 100 µM (inactive) | > 100 µM (inactive) | > 100 µM (inactive) | > 100 µM (inactive) | > 100 µM (inactive) | > 100 µM (inactive) | > 100 µM (inactive) | > 100 µM (inactive) | > 100 µM (inactive) | > 100 µM (inactive) | > 100 µM (inactive) | > 100 µM (inactive) | > 100 µM (inactive) | > 100 µM (inactive) | > 100 µM | > 100 µM (inactive) | > 100 µM (inactive)
CC(C(=O)O)c1ccc(-c2ccccc2)c(F)c1 (centres undefined) [FLURBIPROFEN] | > 100 µM (inactive) | > 100 µM (inactive) | > 100 µM (inactive) | > 100 µM (inactive) | – | > 100 µM (inactive) | > 100 µM (inactive) | > 100 µM (inactive) | > 100 µM (inactive) | > 100 µM (inactive) | > 100 µM (inactive) | > 100 µM (inactive) | > 100 µM (inactive) | > 100 µM (inactive) | > 10 µM (inactive) | > 100 µM (inactive) | > 100 µM (inactive) | > 100 µM | > 100 µM (inactive) | > 100 µM (inactive)
